In one series the test system is Caenorhabditis elegans. The series can be described thus: Nematicidal activity, microtiter plate assay. It counts as cell-based. To be noted: for LD50 / LD90 / nematicidal activity (in words): C. elegans; for LD50 / LD90: tested at 100, 50, 25 and 12.5 μg/mL, no: not obtained; for mortality: at concentrations of 50 and 100 μg/mL. On the procedure:
Nematicidal activity was performed using Caenorhabditis elegans in a microtiter plate assay as described by Rupcic et al. (2018). The assay was performed in four concentrations (100, 50, 25 and 12.5 μg/mL). Ivermectin was used as a positive control at the same concentration ranges as the tested compounds and MeOH was used as a negative control. Percentages of mortality were calculated, then the results were expressed as a LD90 and LD50.

Details of series [1]: method as in PMID 28991218. Particulars: cited from earlier work.
Series [2] relates to L929, KB3-1, A549, PC-3, A431, SKOV-3 and MCF-7 cell lines. The series can be described thus: Cytotoxicity, MTT method, statements over the cell line panel. It counts as cell-based. As to the method:
(§1) The cytotoxicity against the murine fibroblasts L929, human cervix carcinoma KB-3-1, human lung carcinoma A549, human prostate cancer PC-3, epidermoid carcinoma A431, ovarian carcinoma SKOV-3, and breast cancer MCF-7 cell lines was determined by using the MTT (2-(4,5-dimethylthiazol-2-yl)-2,5-diphenyltetrazolium bromide) method in 96-well microplates as previously described. Briefly, the cell lines were cultured in DMEM (Gibco), 60 µL aliquots of serial dilutions from an initial stock of 1 mg/mL in MeOH of the test compounds were added to 120 µL aliquots of a cell suspension (5 × 10^4 cells/mL) in 96-well microplates. After 5 days incubation, an MTT assay was performed, and the absorbance measured at 590 nm using an ELISA plate reader (Victor). The concentration at which the growth of cells was inhibited to 50% of the control (IC50) was obtained from the dose–response curves. Epothilone B was used as the positive control.
On the technique in general: Tetrazolium assays rely on reduction of a dye to a coloured formazan, in cell work by metabolically active cells.

Details of series [3]: method as in PMID 28991218. To be noted: cited from earlier work. The source holds these as a separate data set.
Series [4] has as its system human cervix carcinoma KB-3-1. The series can be described thus: Cytotoxicity, MTT method, KB-3-1. The series is classed as cell-based. Particulars: KB 3-1, 120 h, 5 days incubation, na: not active, read-out: IC50 KB3.1. On the procedure: as §1
Another series has as its system ovarian carcinoma SKOV-3. The experiment in a line: Cytotoxicity, MTT method, SKOV-3. It counts as cell-based. Particulars: Homo sapiens, SK-OV-3, 120 h, 5 days incubation, na: not active. As to the method:
as §1

In series [5] the test system is epidermoid carcinoma A431. The series can be described thus: Cytotoxicity, MTT method, A431. It counts as cell-based. To be noted: Homo sapiens, A-431, 120 h, 5 days incubation, na: not active. On the procedure:
as §1

For another series, the system named is murine fibroblasts L929. The series can be described thus: Cytotoxicity, MTT method, L929. It counts as cell-based. Particulars: Mus musculus, L929, 120 h, read-out: IC50 L929. On the procedure:
as §1

In the next series the test system is breast cancer MCF-7. The series can be described thus: Cytotoxicity, MTT method, MCF-7. The series is classed as cell-based. Particulars: Homo sapiens, MCF7, 120 h, read-out: IC50 MCF-7. On the procedure: as §1
Series [6] deals with human prostate cancer PC-3. The series can be described thus: Cytotoxicity, MTT method, PC-3. The series is classed as cell-based. Particulars: 120 h, read-out: IC50 PC-3. On the procedure:
as §1

Series [7] concerns human lung carcinoma A549. The series can be described thus: Cytotoxicity, MTT method, A549. To be noted: A549, 120 h, 5 days incubation, na: not active. It counts as cell-based. As to the method:
as §1

In the next series the test system is Hs683. Also on record: method as in PMID 36006179. To be noted: human cancer cell line; cited from earlier work.
A further series concerns A549. The arrangement: method as in PMID 36006179. Particulars: human cancer cell line; cited from earlier work.
For the next series, the system named is SKMEL-28. Also on record: method as in PMID 36006179. To be noted: human cancer cell line; cited from earlier work.
Where [8] appears, read: MTT, 5 days incubation, na: not active.
Setting [9] is: all tested cell lines, read-out: IC50 values, range against all the tested cell lines.
Where [10] appears, read: read-out: IC50 values, range against the L929 and KB3-1 cell lines.

“Also recorded” adds a separate entry of the source. Like-named read-outs stand apart in the source and are kept apart here.

Turning to `C/C=C/[C@@H]1OC2=C(C(=O)O[C@]2(C)O)[C@H](O)[C@H]1O` [Compound 1, Massarilactone D], in the series with Caenorhabditis elegans, the LD50 result was “not obtained and no”; the LD90 entry was “no”; the mortality result was “some mortality”. The “antimicrobial activity (in words)” value in [1] was “did not exhibit significant antimicrobial”. In addition, in series [2] (all tested cell lines), the “cytotoxic activity (in words)” value is reported as “not active”. The “cytotoxic activity (in words)” value in series [3] is reported as “did not exhibit significant antimicrobial or cytotoxic activities”.

By IC50 is commonly meant the concentration that inhibits the measured activity by half. On to `C=C(C)C(=O)O[C@H]1[C@H](/C=C/C)OC2=C(C(=O)O[C@]2(C)OC(=O)C2(C)CCC(C)=C(Cl)O2)[C@@H]1OC(=O)C(=C)C` (stereo partly drawn) [Compound 2, massarilactone D 3,4-di-O-methacryloyl-7-O-(6-chloro-3,4-dihydro-2,5-dimethyl-2H-pyran-2-carbonyl)], for which the IC50 in series [4] is 13.1 µM; in the series with ovarian carcinoma SKOV-3 it was 11.8 µM; in series [5], 4 µM; in the series on murine fibroblasts L929 (setting [8]) it was 5.09 µM; in the series with breast cancer MCF-7 (setting [8]), 7.09 µM; in [2] (setting [9]), 3.51 to 32.7 µM. Besides, the IC50 in series [6] (setting [8]) was 11.8 µM; in series [7], 32.7 µM. In addition, in [2] (all tested cell lines), the “cytotoxic activity (in words)” value was “significant cytotoxicity”.

With `C=C1OC(=O)C2=C1O[C@@H](/C=C/C)[C@H](OC(=O)/C=C/c1ccccc1)[C@H]2OC(=O)/C=C/c1ccccc1` [Compound 3, massarilactone H 3,4-di-O-trans-cinnamoyl], the IC50 in [4] is 7.85 µM; in the series on ovarian carcinoma SKOV-3 it was 13.2 µM; in [5], 4.34 µM; with murine fibroblasts L929 (setting [8]), 5.58 µM; in the series with breast cancer MCF-7 (setting [8]), 3.51 µM; in series [2] (setting [9]), 3.51 to 32.7 µM. Besides, the IC50 in series [6] (setting [8]) is 7.64 µM; in series [7], 19.6 µM. Further, the “nematicidal activity (in words)” value in the series with Caenorhabditis elegans is “did not exhibit nematicidal activity”. For the same compound, the “cytotoxic activity (in words)” value in series [2] (all tested cell lines) is “significant cytotoxicity”.

On to `C/C=C/[C@@H]1OC2=C(C(=O)O[C@]2(C)OC(=O)/C=C/c2ccccc2)[C@H](OC(=O)/C=C/c2ccccc2)[C@H]1OC(=O)/C=C/c1ccccc1` [Compound 4, massarilactone D 3,4,7-tri-O-trans-cinnamoyl], for which, in the series with Caenorhabditis elegans, the “nematicidal activity (in words)” value is given as “potent activity against nematodes; also recorded: good nematicidal activity”, the LD50 is given as 12.5 µg/mL and the LD90 amounted to 100 µg/mL.

In the case of `C/C=C/[C@@H]1OC2=C(C(=O)O[C@]2(C)OC(=O)c2ccc(Br)cc2)[C@H](OC(=O)c2ccc(Br)cc2)[C@H]1OC(=O)c1ccc(Br)cc1` [Compound 5, massarilactone D 3,4,7-tri-O-bromobenzoyl], in the series on Caenorhabditis elegans, the LD50 was 100 µg/mL; the LD90 result is “not obtained and no”.

On to `C/C=C/[C@@H]1OC2=C(C(=O)O[C@]2(C)O)[C@H](O)[C@H]1OC(=O)/C(C)=C/C` [Compound 6, massarilactone D 7-O-trans-2-methyl-2-butenoyl], for which, in the series with Caenorhabditis elegans, the LD50 entry was “not obtained and no”; the LD90 entry is reported as “no”; the mortality entry is “some mortality”.

As to `C/C=C/C(=O)O[C@H]1C2=C(O[C@@H](/C=C/C)[C@@H]1O)[C@@](C)(OC)OC2=O` [Compound 7, massarilactone D 4-O-crotonyl-7-O-methyl], the IC50 in [4] is 55.6 µM. For the same compound, the IC50 in the series on murine fibroblasts L929 (setting [8]) was determined as 61.7 µM. For the same compound, in the series with Caenorhabditis elegans, the LD50 entry was “not obtained and no”; the LD90 result is reported as “no”; the mortality result is “some mortality”. In addition, the half-inhibitory concentration (IC50) in [2] (setting [10]) lay in the range of 18.5 to 61.7 µM.

Turning to `C/C=C/C(=O)O[C@H]1C2=C(O[C@@H](/C=C/C)[C@@H]1O)[C@@](C)(OC(=O)/C=C/C)OC2=O` [Compound 8, massarilactone D 4,7-di-O-crotonyl], the IC50 is 18.5 µM in series [4], 50.3 µM with murine fibroblasts L929 (setting [8]) and 18.5 to 61.7 µM in series [2] (setting [10]). Also, the LD50 entry in the series with Caenorhabditis elegans is “not obtained and no”. The LD90 result in the series on Caenorhabditis elegans is given as “no”. Also, the mortality entry in the series with Caenorhabditis elegans was “some mortality”.

For `C/C(=C\c1csc(C)n1)[C@@H]1C[C@@H]2O[C@]2(C)CCC[C@H](C)[C@H](O)[C@@H](C)C(=O)C(C)(C)[C@@H](O)CC(=O)O1` [epothilone B, Epothilone B, reference compound], the concentration for half-maximal inhibition (IC50) with murine fibroblasts L929 turned out to be 0.0022 µM; in the series on breast cancer MCF-7, 7.5e-05 µM; in series [6] it was 9.1e-05 µM.

Turning to `C=C1OC(=O)C2=C1OC(/C=C/C)C(O)C2O` (stereo not drawn) [massarilactone H], the IC50 is 31.5 µM in the series with Hs683, 32.9 µM in the series with A549 and 35.2 µM in the series on SKMEL-28.
